Data published in patent US20210386367A1, “DEVICES AND SYSTEMS FOR GASTROINTESTINAL MICROBIOME DETECTION AND MANIPULATION” (Progenity, Inc., priority 2018, published 2021).
≈ marks a conversion by molar mass, not a printed value. Where “and” joins values, the source holds several entries; their conditions need not be identical. Identical values can stand only once. Like-named read-outs stand apart in the source and are kept apart here.

Key:
[1] = test system: Bacteroides fragilis clinical isolates; assay: MIC distribution against clinical isolates; type: cell-based
Source text: (§1) As used herein, “minimum inhibitory concentration” or “MIC” refers to the lowest concentration of an antimicrobial agent, for example, an antimicrobial agent as described herein, required to inhibit the growth of an organism. […] “MIC90” represents the MIC value at which ≥90% of the strains within a test population are inhibited; the 90th percentile.
(§2) Many susceptibility testing methods are known in the art and can be used as described herein (see, e.g., Jorgensen and Ferraro (2009) Clinical Infectious Diseases 49:1749-1755; and Maurer et al. (2017) Infectious Disease Reports 9:6839; the entire contents of each of the foregoing are incorporated herein by reference). For example, antimicrobial susceptibility can be determined using conventional culture based methods such as the broth or agar dilution test. In these dilution tests, the bacterial isolate of interest is inoculated onto different media that include serial dilutions of an antimicrobial agent, and incubated under appropriate conditions (e.g., overnight at 37° C.) to allow for growth to occur. Following the incubation period, the media is examined to determine bacterial growth. The lowest concentration of antibiotic that prevents growth represents the minimal inhibitory concentration (MIC). Broth dilution tests can be miniaturized and mechanized allowing for reproducibility and high throughput.

[2] = test system: Veillonella spp. clinical isolates; assay: MIC distribution against clinical isolates; type: cell-based
Source text: (n=19 V. parvula, n=9 Veillonella spp., n=1 Veillonella dispr., n=1 V. atypica) clinical isolates (μg/mL).
as §1, §2

[3] = test system: Bacteroides spp. spontaneous mutants; conditions: B. fragilis ATCC 25285; CLSI QC range shown in parentheses; cited from earlier work
[4] = test system: Streptococcus agalactiae clinical isolates; assay: MIC distribution against clinical isolates; type: cell-based; conditions: 20 S. agalactiae isolates
Source text: as §1, §2

[5] = test system: Clostridium spp. clinical isolates; assay: MIC distribution against clinical isolates; type: cell-based; conditions: MIC 4 μg/mL; 10 Clostridium spp. isolates
Source text: (n=4 C. sporogenes, n=2 C. ramosum and n=4 C. innocuum) clinical isolates (μg/mL).
as §1, §2

[6] = test system: S. pneumoniae ATCC 49619; assay: Broth microdilution MIC (time-kill study); type: cell-based, Streptococcus pneumoniae
[7] = test system: E. coli ATCC 25922; assay: Time-kill assay; type: cell-based, Escherichia coli; conditions: 2×, 4×, 8× MIC; 2, 6, 24 hr
[8] = test system: Bacteroides spp.; assay: Spontaneous mutation frequency assay; type: cell-based
Experimental: Initial values of the MIC were determined by agar dilution in accordance with guidelines from the Clinical and Laboratory Standards Institute (CLSI; (1) “Methods for Dilution Antimicrobial Susceptibility Tests for Bacteria That Grow Aerobically; Approved Standard; 11th ed.,” CLSI standard M07, 2018; (2) “Methods for Antimicrobial Susceptibility Testing of Anaerobic Bacteria; Approved Standard—Eighth Edition,” CLSI document M11-A8, 2012.).
The agar plates were prepared by mixing a ratio of 1.0 mL of concentrated drug to 49.0 mL of the appropriate molten (47° C.) agar; the drug-supplemented agar was mixed, poured into 15-by-150 mm petri dishes and allowed to solidify and dry at room temperature prior to inoculation. […] Each plate was allowed to cool at room temperature for at least 1 hr.
The isolates were streaked onto the appropriate agar medium and incubated for 20 hr (aerobes) or 48 hr (Bacteroides under anaerobic conditions). Using a sterile swab, several well-isolated colonies were removed and resuspended in sterile saline at a heavy cell density. Each plate was inoculated with 0.5 mL of the cell suspension (each test concentration was inoculated in duplicate). The target inoculum for each spontaneous mutation plate was 10^9-10 CFU. In addition, a portion of the inoculum from each isolate was enumerated by making dilutions, spreading on agar and counting colonies.
Once the inoculum was absorbed into the agar, the plates were incubated at 35° C. Aerobes were examined at 24 and 48 hr, and resulting colonies were counted. Bacteroides were incubated anaerobically for 48-72 hr in the anaerobe chamber and colonies were counted.
Colony counts from plates used to enumerate the initial inoculum density and from the resulting spontaneous mutation frequency test plates were determined. The inoculum size was calculated as CFU inoculated per plate. The spontaneous mutation frequency was calculated using the counts from duplicate spontaneous mutation assay test plates as follows:
If there were no colonies on the antibiotic selection plates, the spontaneous mutation frequency was reported as less than the frequency observed with one colony to indicate that the spontaneous mutation frequency was less than the limit of detection (one CFU). […] The mutation prevention concentration (MPC) was reported as the lowest concentration for which no mutants were selected.

[9] = test system: E. coli ATCC 25922; conditions: cited from earlier work
[10] = test system: E. coli (ATCC 25922, ATCC 35218, MMX 1312); conditions: cited from earlier work
[11] = test system: Streptococcus spp. (S. pneumoniae ATCC 49619, S. pyogenes ATCC 49399, S. agalactiae ATCC 13813); conditions: cited from earlier work
[12] = test system: E. coli spontaneous mutants; conditions: E. coli ATCC 25922; CLSI QC range shown in parentheses; cited from earlier work
[13] = in vivo, 50 mg/kg, cited from earlier work
[14] = MIC 0.5 μg/mL, 30 B. fragilis isolates
[15] = MIC 1 μg/mL, 30 B. fragilis isolates
[16] = MIC 2 μg/mL, 30 B. fragilis isolates
[17] = MIC […], 30 B. fragilis isolates
[18] = MIC 1 μg/mL, 30 Veillonella spp. isolates
[19] = MIC 2 μg/mL, 30 Veillonella spp. isolates
[20] = MIC 4 μg/mL, 30 Veillonella spp. isolates
[21] = MIC >32 μg/mL, 30 Veillonella spp. isolates
[22] = MIC 8 μg/mL, 30 B. fragilis isolates
[23] = MIC 16 μg/mL, 30 B. fragilis isolates
[24] = MIC 32 μg/mL, 30 B. fragilis isolates
[25] = MIC 64 μg/mL, 30 B. fragilis isolates
[26] = MIC 0.5 μg/mL, 30 Veillonella spp. isolates
[27] = MIC 8 μg/mL, 30 Veillonella spp. isolates
[28] = MIC 16 μg/mL, 30 Veillonella spp. isolates
[29] = MIC 32 μg/mL, 30 Veillonella spp. isolates

Compound: Cc1ncc([N+](=O)[O-])n1CCO [MTZ]
- Cumulative percentage of isolates inhibited at MIC [1, 14]: 30.0%
- Number of test isolates at MIC [1, 14]: 7
- Cumulative percentage of isolates inhibited at MIC [1, 15]: 76.7%
- Number of test isolates at MIC [1, 15]: 14
- Cumulative percentage of isolates inhibited at MIC [1, 16]: 100.0%
- Number of test isolates at MIC [1, 16]: 7
- Cumulative percentage of isolates inhibited at MIC [1, 17]: 6.7%
- Number of test isolates at MIC [1, 17]: 2
- Cumulative percentage of isolates inhibited at MIC [2, 18]: 3.3%
- Number of test isolates at MIC [2, 18]: 1
- Cumulative percentage of isolates inhibited at MIC [2, 19]: 33.3%
- Number of test isolates at MIC [2, 19]: 9
- Cumulative percentage of isolates inhibited at MIC [2, 20]: 83.3%
- Number of test isolates at MIC [2, 20]: 15
- Cumulative percentage of isolates inhibited at MIC [2, 21]: 100.0%
- Number of test isolates at MIC [2, 21]: 5
- MIC, CLSI QC range [3]: (0.25-2) μg/mL

Compound: CO/N=C(\C(=O)N[C@@H]1C(=O)N2C(C(=O)O)=C(CSc3nc(=O)c(=O)[nH]n3C)CS[C@H]12)c1csc(N)n1 [ceftriaxone]
- Cumulative percentage of isolates inhibited at MIC [1, 22]: 10.0%
- Number of test isolates at MIC [1, 22]: 3
- Cumulative percentage of isolates inhibited at MIC [1, 23]: 40.0%
- Number of test isolates at MIC [1, 23]: 9
- Cumulative percentage of isolates inhibited at MIC [1, 24]: 66.7%
- Number of test isolates at MIC [1, 24]: 8
- Cumulative percentage of isolates inhibited at MIC [1, 25]: 73.3%
- Number of test isolates at MIC [1, 25]: 2
- Cumulative percentage of isolates inhibited at MIC ([1]; listed as CTR): 76.7% and 100.0%
- Cumulative percentage of isolates inhibited at MIC ([4]; MIC 0.03 μg/mL): 25.0%
- Number of test isolates at MIC ([4]; MIC 0.03 μg/mL): 5
- Cumulative percentage of isolates inhibited at MIC ([4]; MIC 0.06 μg/mL): 90.0%
- Number of test isolates at MIC ([4]; MIC 0.06 μg/mL): 1.3
- Cumulative percentage of isolates inhibited at MIC ([4]; MIC […]): 100.0%
- Number of test isolates at MIC ([4]; MIC […]): 2
- Cumulative percentage of isolates inhibited at MIC [5]: 40.0%
- Cumulative percentage of isolates inhibited at MIC [2]: 100.0%
- Number of test isolates at MIC [2]: 1
- Cumulative percentage of isolates inhibited at MIC [2, 26]: 10.0%
- Number of test isolates at MIC [2, 26]: 3
- Cumulative percentage of isolates inhibited at MIC [2, 18]: 23.3%
- Number of test isolates at MIC [2, 18]: 4
- Cumulative percentage of isolates inhibited at MIC [2, 19]: 26.7%
- Number of test isolates at MIC [2, 19]: 1
- Cumulative percentage of isolates inhibited at MIC [2, 20]: 30.0%
- Number of test isolates at MIC [2, 20]: 1
- Cumulative percentage of isolates inhibited at MIC [2, 27]: 40.0%
- Number of test isolates at MIC [2, 27]: 3
- Cumulative percentage of isolates inhibited at MIC [2, 28]: 86.7%
- Number of test isolates at MIC [2, 28]: 14
- Cumulative percentage of isolates inhibited at MIC [2, 29]: 96.7%
- Number of test isolates at MIC [2, 29]: 3
- MIC ([6]; S. pneumoniae ATCC 49619): 0.06 µg/mL (≈ 0.108 µM)
- MIC ([6]; Streptococcus pneumoniae, ATCC49619, broth microdilution, read-out: MIC): 0.06 µg/mL (≈ 0.108 µM)
- time-kill kinetics outcome (bactericidal = ≥3 log reduction in CFU per mL) [7]: bactericidal at 8×MIC at 24 hr
- MPC (mutation prevention concentration) ([8]; B. vulgatus ATCC 8482): 32 µg/mL
- Spontaneous Mutation Frequency ([8]; B. vulgatus ATCC 8482, 4× the MIC): > 8.69×10^−8
- Spontaneous Mutation Frequency ([8]; B. vulgatus ATCC 8482, 8× the MIC): ≤ 1.74×10^−10
- CLSI QC range (MIC) [9]: (0.03-0.12) μg/mL
- CLSI QC range (agar MIC) [10]: 0.03 to 0.12 µg/mL
- CLSI QC range (agar MIC) [11]: 0.03 to 0.12 µg/mL
- MIC, CLSI QC range [12]: (0.03-0.12)^1 μg/mL
- Rat oral exposure lower than iv [13]: mg/kg (200-fold
- Rat oral exposure (Dose) ([13]; po): 0.9 μg*hr/mL at 50

Compound: COc1c(N2C[C@@H]3CCCN[C@@H]3C2)c(F)cc2c(=O)c(C(=O)O)cn(C3CC3)c12 [moxifloxacin]
- Cumulative percentage of isolates inhibited at MIC ([4]; MIC 0.06 μg/mL): 15.0%
- Number of test isolates at MIC ([4]; MIC 0.06 μg/mL): 3
